Among the data in ChEMBL document CHEMBL1128624, “Syntheses of -, -monoglycosylceramides and four diastereomers of an -galactosylceramide” (Bioorg Med Chem Lett, 1995) are Activity values, retold here.

For this experiment, the species on record is Mus musculus. Nature of the experiment: Antitumor activity against B16-melanoma bearing mice; active. The format is functional, organism-based.

SMILES strings stand for the structures. The source made the active and inactive calls. No cut-off for these calls is given here.

Regarding `CCCCCCCCCCCCCCCCCCCCCC[C@@H](O)C(=O)N[C@@H](CO[C@H]1O[C@@H](CO)[C@H](O)[C@H](O)[C@@H]1O)[C@H](O)[C@H](O)CCCCCCCCCCCC(C)CC` (some centres undefined), the outcome was Active. Next, `CCCCCCCCCCCCCCCCCCCCCCC[C@@H](O)C(=O)N[C@@H](CO[C@H]1O[C@@H](CO)[C@H](O)[C@H](O)[C@@H]1O)[C@H](O)[C@H](O)CCCCCCCCCCCC(C)CC` (some centres undefined): “Active”; `CCCCCCCCCCCCCCCCCCCCCC[C@@H](O)C(=O)N[C@@H](CO[C@H]1O[C@@H](CO)[C@H](O)[C@H](O)[C@@H]1O)[C@H](O)[C@H](O)CCCCCCCCCCCC`: “Active”. Regarding `CCCCCCCCCCCCCCCCCCCCCC[C@@H](O)C(=O)N[C@@H](CO[C@H]1O[C@@H](CO)[C@H](O)[C@H](O)[C@@H]1O)[C@H](O)[C@H](O)CCCCCCCCCCCC(C)C`, the result was Active.
